Where two headings read alike, the source gives them in different places.
Legend:
[1] = MTT assay, proliferation inhibition; type: cell-based; conditions: Homo sapiens, LN-18 gastric cancer, read-out: Proliferation inhibition rate
Text: (§1) 1. Cytotoxicity Assay Using Human Tumor Cell Lines
(§2) Paclitaxel was used as the positive drug.

[2] = system: BGC-823 gastric cancer; assay: MTT assay, proliferation inhibition; type: cell-based; conditions: Homo sapiens, read-out: Proliferation inhibition rate
Text: as §1, §2

[3] = system: A549 non-small cell lung cancer; assay: MTT assay, proliferation inhibition; type: cell-based; conditions: Homo sapiens, read-out: Proliferation inhibition rate
Text: as §1, §2

[4] = system: HL60 leukemia; assay: MTT assay, proliferation inhibition; type: cell-based; conditions: Homo sapiens, HL-60, read-out: Proliferation inhibition rate
Text: as §1, §2

[5] = system: K562 leukemia; assay: MTT assay, proliferation inhibition; type: cell-based; conditions: Homo sapiens, read-out: Proliferation inhibition rate
Text: as §1, §2

[6] = system: MDA-MB-436 breast cancer; assay: MTT assay, proliferation inhibition; type: cell-based; conditions: Homo sapiens, read-out: Proliferation inhibition rate
Text: as §1, §2

[7] = system: B16 melanoma; assay: MTT assay, proliferation inhibition; type: cell-based; conditions: read-out: Proliferation inhibition rate
Text: as §1, §2

[8] = system: HCT 116 colon cancer; assay: MTT assay, proliferation inhibition; type: cell-based; conditions: Homo sapiens, read-out: Proliferation inhibition rate
Text: as §1, §2

[9] = system: HeLa cervical cancer; assay: MTT assay, proliferation inhibition; type: cell-based; conditions: Homo sapiens, read-out: Proliferation inhibition rate
Text: as §1, §2

[10] = system: A2780 ovarian cancer; assay: MTT assay, proliferation inhibition; type: cell-based; conditions: Homo sapiens, read-out: Proliferation inhibition rate
Text: as §1, §2

[11] = system: LNCaP prostate cancer; assay: MTT assay, proliferation inhibition; type: cell-based; conditions: Homo sapiens, read-out: Proliferation inhibition rate
Text: as §1, §2

[12] = system: DU145 prostate cancer; assay: MTT assay, proliferation inhibition; type: cell-based; conditions: Homo sapiens, DU-145, read-out: Proliferation inhibition rate
Text: as §1, §2

[13] = system: HT29 colon cancer; assay: MTT assay, proliferation inhibition; type: cell-based; conditions: Homo sapiens, HT-29, read-out: Proliferation inhibition rate
Text: as §1, §2

[14] = system: A375 melanoma; assay: MTT assay, proliferation inhibition; type: cell-based; conditions: Homo sapiens, A-375, read-out: Proliferation inhibition rate
Text: as §1, §2

[15] = system: NCI-H460 non-small cell lung cancer; assay: MTT assay, proliferation inhibition; type: cell-based; conditions: Homo sapiens, read-out: Proliferation inhibition rate
Text: as §1, §2

[16] = system: MCF-7 breast cancer; assay: MTT assay, proliferation inhibition; type: cell-based; conditions: Homo sapiens, MCF7, read-out: Proliferation inhibition rate
Text: as §1, §2

[17] = system: breast cancer cell line MCF-7; assay: IC50 values on breast cancer cell line MCF-7; type: cell-based; conditions: Homo sapiens
Text: From the activity evaluation data of the above-mentioned preliminary screen, it can be seen that the series of taxanes derivatives synthesized in the present invention have activity (although the activity of PCMI-43 is weakened). Afterward, most of the compounds are picked up from these derivatives to examine their IC50 values on breast cancer cell line MCF-7. Paclitaxel is used as the positive control drug. Experiments for each compound were independently repeated for three times and multiple holes were used in each experiment. The exposure time of drugs was 72 hours.

[18] = Caco-2 cell monolayer membrane transport assay; conditions: human; for Papp A→B: Caco-2, Papp A-B; for recovery: Caco-2, Recovery rate in mass
Text: (§3) Caco-2 Cell Monolayer Membrane Transport Assay
(§4) Human-derived colorectal adenocarcinoma cell line Caco-2 cell monolayer model was used to study the bidirectional transport of the target compounds from the apical (AP) side to the basolateral (BL) side and from BL side to AP side. HPLC was used for quantitative analysis to calculate transport parameters, apparent permeability coefficient (Papp) and the efflux ratio.

[19] = system: Caco-2 cell monolayer; assay: Caco-2 cell monolayer membrane transport assay; conditions: Caco-2 cell line (21 days); for efflux ratio: Papp B-A/Papp A-B; for Papp A-B / Papp B-A: bidirectional transport, Table 5
Text: as §3, §4

[20] = MCF7, 72 h, read-out: MCF-7(IC50, nM)
[21] = Mean, Caco-2, A-B, mean of two samples
[22] = Sample-01, Caco-2, A-B, Sample-01
[23] = Sample-02, Caco-2, A-B, Sample-02
[24] = Caco-2 cell line (21 days), bidirectional transport, Table 5
[25] = MCF7, MCF-7, exposure 72 hours, mean±SD of three independent experiments, read-out: MCF-7(IC50)

| SMILES | inhibition at 1 µM [1] [%] | inhibition at 1 µM [2] [%] | inhibition at 1 µM [3] [%] | inhibition at 1 µM [4] [%] | inhibition at 1 µM [5] [%] | inhibition at 1 µM [6] [%] | inhibition at 1 µM [7] [%] | inhibition at 1 µM [8] [%] | inhibition at 1 µM [9] [%] | inhibition at 1 µM [10] [%] | inhibition at 1 µM [11] [%] | inhibition at 1 µM [12] [%] | inhibition at 1 µM [13] [%] | inhibition at 1 µM [15] [%] | inhibition at 1 µM [16] [%] | Papp A→B [18, 22] [×10⁻⁶ cm/s] | Papp A→B [18, 23] [×10⁻⁶ cm/s] | recovery [18, 21] [%] | recovery [18, 22] [%] | recovery [18, 23] [%] | also measured |
| --- | --- | --- | --- | --- | --- | --- | --- | --- | --- | --- | --- | --- | --- | --- | --- | --- | --- | --- | --- | --- | --- |
| CO[C@H]1C[C@H]2OC[C@@]2(OC(C)=O)[C@H]2[C@H](OC(=O)c3ccccc3)[C@]3(O)C[C@H](OC(=O)[C@H](O)[C@@H](NC(=O)OC(C)(C)C)c4ccccc4)C(C)=C([C@@H](OC(=O)N(C)C)C(=O)[C@]12C)C3(C)C [PCMI-22] | 95.5 | 92 | 69.9 | 97.5 | 92.2 | 81.1 | 74.7 | 81.1 | 102 | 96.3 | 80.9 | 87.1 | 87.9 | 86.5 | 85.7 | 9 | 8.38 | 89.4 | 92.4 | 86.4 | inhibition at 1 µM [14]: 87.7%; IC50 [17, 20]: 1.58 ± 0.04 nM; Papp A→B [18, 21]: 8.69 ×10⁻⁶ cm/s; efflux ratio [19]: 4.08; Papp A-B [19]: 8.11 10^−6 cm/s; Papp B-A [19]: 33.11 10^−6 cm/s |
| CO[C@H]1C[C@H]2OC[C@@]2(OC(C)=O)[C@H]2[C@H](OC(=O)c3ccccc3)[C@]3(O)C[C@H](OC(=O)[C@H](O)[C@H](CC(C)C)NC(=O)OC(C)(C)C)C(C)=C([C@@H](OC(=O)N(C)C)C(=O)[C@]12C)C3(C)C [PCMI-25] | 92.5 | 90.2 | 69.5 | 97.7 | 90.9 | 78.4 | 71.8 | 78.3 | 101 | 94.8 | 80.4 | 82.9 | 87.3 | 80.7 | 89.8 | 6.41 | 9.92 | 71.2 | 63.9 | 78.5 | inhibition at 1 µM [14]: 89%; IC50 [17, 20]: 1.7 ± 0.08 nM; Papp A→B [18, 24]: 8.25 ×10⁻⁶ cm/s; Papp B-A [19]: 32.58 10^−6 cm/s |
| COC(=O)O[C@H]1C(=O)[C@]2(C)[C@@H](OC)C[C@H]3OC[C@@]3(OC(C)=O)[C@H]2[C@H](OC(=O)c2ccccc2)[C@]2(O)C[C@H](OC(=O)[C@H](O)[C@@H](NC(=O)OC(C)(C)C)c3ccccc3)C(C)=C1C2(C)C [PCMI-26] | 89 | 89.2 | 66.2 | 96.8 | 91.4 | 76.3 | 69.7 | 81.1 | 101 | 95.8 | 79.8 | 86.2 | 88.8 | 86.4 | 95.5 | 8.45 | 9.06 | 81.4 | 80.9 | 82 | inhibition at 1 µM [14]: 94.2%; IC50 [17, 25]: 1.4 ± 0.1 nM; Papp A→B [18, 21]: 8.75 ×10⁻⁶ cm/s; efflux ratio [19]: 4.22; Papp A-B [19]: 6.91 10^−6 cm/s; Papp B-A [19]: 29.18 10^−6 cm/s |
| COC(=O)O[C@H]1C(=O)[C@]2(C)[C@@H](OC)C[C@H]3OC[C@@]3(OC(C)=O)[C@H]2[C@H](OC(=O)c2ccccc2)[C@]2(O)C[C@H](OC(=O)[C@H](O)[C@H](CC(C)C)NC(=O)OC(C)(C)C)C(C)=C1C2(C)C [PCMI-28] | 97.5 | 92.2 | 72.5 | 96.9 | 92.6 | 84.3 | 74.1 | 81.1 | 99.7 | 95.6 | 84 | 85.7 | 89.1 | 85.8 | 103 | 8.58 | 9.46 | 70.8 | 64.8 | 76.8 | IC50 [17, 20]: 2.9 ± 0.06 nM; Papp A→B [18, 21]: 9.02 ×10⁻⁶ cm/s; Papp A-B [19]: 8.87 10^−6 cm/s; Papp B-A [19]: 33.26 10^−6 cm/s |
| CO[C@H]1C(=O)[C@]2(C)[C@@H](OC(=O)N(C)C)C[C@H]3OC[C@@]3(OC(C)=O)[C@H]2[C@H](OC(=O)c2ccccc2)[C@]2(O)C[C@H](OC(=O)[C@H](O)[C@@H](NC(=O)N(C)C)c3ccccc3)C(C)=C1C2(C)C [PCMI-35] | 93.5 | 95.8 | 76.2 | 97.5 | 92.7 | 80.2 | 80.3 | 65.5 | 99.9 | 94.2 | 85.3 | 89.8 | 87.3 | 86.9 | 92.5 | 3.21 | 2.87 | 91.3 | 95 | 87.6 | inhibition at 1 µM [14]: 95.3%; IC50 [17, 25]: 4.28 ± 0.08 nM; Papp A→B [18, 21]: 3.04 ×10⁻⁶ cm/s |
| COC(=O)O[C@H]1C[C@H]2OC[C@@]2(OC(C)=O)[C@H]2[C@H](OC(=O)c3ccccc3)[C@]3(O)C[C@H](OC(=O)[C@H](O)[C@@H](NC(=O)OC(C)(C)C)c4ccccc4)C(C)=C([C@@H](OC)C(=O)[C@]12C)C3(C)C [PCMI-36] | 95.9 | 94.6 | 78 | 97.8 | 94.5 | 77.5 | 81.8 | 67.2 | 102 | 96.9 | 83.8 | 88.3 | 89.7 | 90.3 | 107 | 6.66 | 7.29 | 88.5 | 95.5 | 81.4 | inhibition at 1 µM [14]: 94%; IC50 [17, 20]: 4.97 ± 0.06 nM |
| CCSC(=O)O[C@H]1C[C@H]2OC[C@@]2(OC(C)=O)[C@H]2[C@H](OC(=O)c3ccccc3)[C@]3(O)C[C@H](OC(=O)[C@H](O)[C@@H](NC(=O)N(C)C)c4ccccc4)C(C)=C([C@@H](OC)C(=O)[C@]12C)C3(C)C [PCMI-40] | 93.9 | 93.3 | 80.2 | 96.9 | 92.7 | 83.6 | 83.7 | 67.3 | 99.6 | 94.2 | 87.2 | 90 | 87.2 | 87.3 | 94.7 | 3.78 | 4.05 | 74.5 | 78.2 | 70.7 | inhibition at 1 µM [14]: 95.2%; IC50 [17, 20]: 5.49 ± 0.14 nM; Papp B→A ([18]; Caco-2): 37.2 ×10⁻⁶ cm/s; efflux ratio ([18]; Caco-2): 5.36; Papp A→B [18, 24]: 6.92 ×10⁻⁶ cm/s; Papp A→B [18, 21]: 3.92 ×10⁻⁶ cm/s |
| CO[C@H]1C(=O)[C@]2(C)CC[C@H]3OC[C@@]3(OC(C)=O)[C@H]2[C@H](OC(=O)c2ccccc2)[C@]2(O)C[C@H](OC(=O)[C@H](O)[C@@H](NC(=O)OC(C)(C)C)c3ccccc3)C(C)=C1C2(C)C [PCMI-41] | 94.6 | 93.1 | 77 | 97.7 | 94.3 | 80.1 | 81.1 | 65 | 101 | 95.8 | 82.5 | 87.6 | 88.3 | 85.7 | 95.5 | 4.27 | 5.79 | 101 | 97 | 105 | inhibition at 1 µM [14]: 91.6%; IC50 [17, 25]: 3.33 ± 0.11 nM; Papp A→B [18, 21]: 5.03 ×10⁻⁶ cm/s |

— US10253007B2, “Taxanes compounds, preparation method therefor, and uses thereof” (Jiangsu Tasly Diyi Pharmaceutical Co., Ltd., priority 2013, dated 2019)
